Experiments:
ShA9-WT = assay: Transmission electron microscopy of ShA9-WT; format: cell-based, Staphylococcus hominis; conditions: LL-37 (2 μM), 30°C, 30 min; Figure 5B
S. hominis C6 strain = assay: Synergistic antimicrobial assay between LL-37 and Pep-5; format: cell-based, Staphylococcus hominis; conditions: strain lacking antimicrobial activity; 90% RPMI/10% TSB, 30°C, 24 h; Figure S9
Method: ShA9 or S. epidermidis A11 strains, lantibiotic producing CoNS, were cultured in TSB at 37°C with shake overnight. Bacteria were removed by centrifugation, followed by sterile filtration with 0.22μm membrane. Lantibiotics from each strain was precipitated by adding ammonium sulfate into the sterile conditioned media at 70% saturation. The ammonium sulfate precipitation of conditioned media were dissolved in 90% RPMI1640 supplemented by 10% TSB. ShA9-DLanti mutant or S. hominis C6 strain were cultured in TSB at 37°C overnight and washed with PBS. These strain was incubated with conditioned media precipitation (0–100%) along with […] of LL-37 in 90% RPMI/10% TSB at 30°C for 24 h. Concentration of conditioned media precipitation added was calculated based on the original volume of sterile conditioned media. Bacterial survival was evaluated by measuring OD600 or counting CFUs.

[1] = tested on: CoNS-AM+ strains of S. epidermidis or S. hominis; assay: Bacterial survival on pigskin, antibiotic-producing CoNS; format: cell-based; conditions: LL-37 2.5 nmol on 2.5 × 2.5 cm pigskin sheet, 1 × 10^6 CFU, 30°C, 24 h; Figure 4F
Method: Fresh-frozen pigskin sheets were obtained from Loretta Tomlin Animal Technologies (Livermore, CA) and sanitized by surgical brush with 3% chloroxylenol. The skin sheet was cut into 2.5 cm × 2.5 cm and rinsed with sterile PBS more than 20 times to remove chloroxylenol residue. Synthetic LL-37 (2.5nanomol/50μL H2O) or equal volume of vehicle was applied to the surface of sanitized pig skin. Antibiotic-producing or non-antibiotic-producing strain of CoNS (1 × 10^6 CFU/10μL PBS) was applied on the pigskin. Pigskin sheet was placed on a 6-well plate and incubated at 30°C for 24 h. The entire skin sheet was rubbed 50 times with nylon foam swab (Puritan) pre-moisturized with PBS to collect bacteria on the skin surface. Swab sample was suspended in 1mL of 85% TSB/15% glycerol and frozen until analysis.

[2] = tested on: CoNS with antimicrobial activity within the microbial community of human skin swabs; assay: Effect of low dose LL-37 on mixed bacterial communities from healthy human forearm skin in vitro; format: cell-based, coagulase-negative Staphylococcus; conditions: skin swabs from forearms of 5 healthy subjects, media with a low dose of LL-37, 4 h; Figure 4H
Method: Finally, the capacity of AMPs to shape the composition of the skin CoNS community was evaluated by examining the effects of LL-37 on survival of mixed communities of bacteria obtained from human skin (Figure 4G). Skin swab samples were obtained from the forearms of 5 healthy subjects (Table S4), and these mixed bacterial samples were incubated in media without or with a low dose of LL-37 for 4 h.
Individual isolated colonies of CoNS from human skin were grown on mannitol-salt agar with egg yolk (pink color without egg yolk reaction), randomly picked and transferred to individual wells containing TSB (400μL) in a 96-well cluster tube. Each plate also contained wells with a non-antimicrobial strain of S. epidermidis (S. epidermidis 1457) as a negative control, a potent antimicrobial strain of Staphylococcus hominis (A9 strain) as positive control, and blank wells without bacteria. CoNS were cultured at 37°C overnight with shaking. Growth was evaluated by OD600. Bacteria were removed by centrifugation followed by sterile filtration with a 0.22μm membrane. Sterile conditioned media were mixed with fresh TSB at 1:1. The antimicrobial activity released from each CoNS clone was evaluated by culturing 1 × 10^4 CFU of S. aureus (ATCC35556) in 200μL of diluted conditioned media at 30°C for 24 h. […] To determine frequency of antimicrobial CoNS, up to 48 CoNS vvvcolonies were analyzed.

ShA9-WT and ShA9-ΔLanti = assay: Growth inhibition of ShA9-WT and ShA9-ΔLanti by human and murine AMPs (OD600); format: cell-based, Staphylococcus hominis; conditions: 90% RPMI/10% TSB, 30°C, 24 h, mean of duplicate technical replicates, Figure 4E
Method: Staphylococcus strains collected from normal skin from healthy subjects or lesional skin from AD patients were cultured in TSB overnight. Bacteria were washed with PBS and resuspended to 90% RPMI media and 10% TSB. Bacteria (1 × 10^5 CFU/mL) were incu bated with or without human AMPs (LL-37, hBD-2, hBD-3) or mouse cathelin-related AMP (CRAMP) in 90% RPMI media and 10% TSB (100 μL) in each well of a 96-well plate at 30°C for 24 h. Bacterial growth was assessed by measuring OD600. Minimal inhibitory concentration was defined as the lowest concentration which prevent visible bacterial growth (<5% of OD600 value of the con trol well).

Substance: LL-37
- Electron microscopy findings in ShA9-WT after exposure (ShA9-WT): disruption of cytoplasmic membrane integrity and development of a mesosome-like structure within the cytosol
- Antimicrobial interaction of LL-37 combined with Pep-5 on S. hominis C6 (S. hominis C6 strain): synergy
- Survival of CoNS strains with antibiotic activity on pigskin [1]: inhibited survival
- Relative proportion of CoNS with antimicrobial activity in mixed bacterial samples [2]: decreased
- Sensitivity of ShA9-WT to the AMP compared with ShA9-ΔLanti (growth inhibition) (ShA9-WT and ShA9-ΔLanti): more sensitive
